Experimental data: patent US20260265316A1, “IMMUNOTHERAPEUTIC METHODS, COMPOUNDS, AND COMPOSITIONS FOR TREATING OR PREVENTING CELIAC DISEASE” (DBV Technologies, priority 2023, published 2026)

Experiments:
[1] = Solubility upon drying on PET-Ti backing film and storage for 1 or 3 months at room temperature or 5° C.; assay type: physicochemical
Procedure: Backing films were stored for 1 month at room temperature (A, B, C) or 5° C. (D, E, F), away from light and humidity.
Backing films were stored for 3 months at room temperature (A, B, C) or 5° C. (D, E, F), away from light and humidity.
In order to evaluate their solubility upon deposition on a patch backing film and a period of storage, the three polypeptide constructs and the four individual building blocks were each dried on a PET-Ti backing film as described above. Backing films were stored at room temperature or 5° C. for 1 or 3 months.

[2] = system: circulating gluten-specific CD4+ T cells in whole blood of HLA-DQ2+ CeD patients; experiment: Whole blood IL-2 cytokine release assay, HLA-DQ2+ CeD participants; assay type: cell-based, human; settings: 24 hours; for IL-2 response (in words): HLA-DQ2+ donors, whole blood; for mean IL-2 titer: HLA-DQ2+ participants, 10 μM
Description: FIGS. 10A-10B are graphs depicting the evaluation of the ability of various molarities of three gliadin polypeptides (Cv6, Av6, and 4K), two peptide mixes containing either the four individual building blocks BB1, BB2a, BB3a and BB4a (BB1-4a) or two Nexvax2 peptides (Nex01/02), and six individual building blocks or peptides (BB1, BB2a, BB3a, BB4a, Nex01, and Nex02) to restimulate gluten-specific T cell collected from HLA-DQ2+ CeD patients using a whole blood IL-2 release assay. The whole blood cytokine release assay was performed in six HLA-DQ2+ participants with biopsy-confirmed celiac disease. Whole blood was stimulated with the three gliadin polypeptide constructs Cv6, Av6, and 4K at 10, 2.5, and 0.5 μM final molarities, as indicated. Alternatively, whole blood was stimulated with a mix of peptides containing either the four building blocks BB1, BB2a, BB3a, and BB4a (BB1-4a) or Nex01 and Nex 02 (Nex01/02) at 10, 2.5, and 0.5 μM final molarities. Building blocks (BB1, BB2a, BB3a, and BB4a), Nex01, and Nex02 were also tested as individual peptides, at a single concentration of 10 μM. After 24 hours of incubation, the concentration of IL-2 was quantified from plasma using an MSD IL-2 S-plex ELISA. Data are expressed in femtogram/mL of plasma (A), or as fold change from the negative control (PBS 1×) (B). Symbols represent individual participants (patient ID); bars represent median+interquartile range of individual values.
The overarching objective of this assay was to validate that the polypeptide constructs (Cv6, Av6, and 4K) can be recognized and processed by human APCs, and they can then promote the activation of gluten-specific effector/memory CD4^+ T cells in CeD patients. A Cytokine Release Assay (CRA) was used (previously described in the literature: Anderson et al., Clinical & Experimental Immunology, 2021 June; 204(3): 321-334; and in Hardy et al., Frontiers in Immunology, 2021, Vol. 12, Article 661662, the entire contents of each of which are incorporated by reference herein). This assay quantifies IL-2 produced by circulating gluten-specific CD4^+ T cells present in the blood of CeD patients upon in vitro stimulation with gluten-derived antigens. Due to the extremely high sensitivity of this CRA, no oral exposure to gluten was required prior to blood sampling.
Informed consent was obtained from all subjects prior to blood collection.
Unfractionated blood (225 μL per well of a 96-well plate) was then rapidly restimulated for 24 hours with each of three of the polypeptide constructs provided herein (SEQ ID NO:23 wherein X is C [Cv6, i.e., SEQ ID NO:49], SEQ ID NO:23 wherein X is A [Av6, i.e., SEQ ID NO:50], and SEQ ID NO:46 [4K]) and with each of four individual building blocks (SEQ ID NO:15 wherein Z is E [BB1], SEQ ID NO:16 wherein Z is E [BB2a], SEQ ID NO:20 wherein Z is E [BB3a], and SEQ ID NO:18 wherein Z is E [BB4a]). The concentrations of the polypeptide constructs ranged from 0.5 to 10 micromolar, and the concentration for each individual building block was 10 micromolar. […] These two peptides comprise an N-terminal pyroglutamate and a C-terminal amide. Nex01 and Nex02 were the two gliadin peptides used in the Nexvax2 immunotherapeutic vaccine that was intended to restore immune tolerance to gluten in HLA-DQ2.5+ CeD patients. A positive control consisted of blood cells stimulated with phytohemagglutinin (PHA) (10 μg/mL) which activates all T cells regardless of their antigen specificity (i.e., a polyclonal activator). Negative controls consisted of cells treated with buffer only (PBS 1×).
After incubation for 24 hours at 37° C. and 5% CO2, plasma was separated from whole blood by centrifugation. Plasma was collected from each well and replicates (n=6 replicates per test) pooled. All plasma samples were frozen at −80° C. until analysis. Single plasma aliquots (100 μL) were thawed and analyzed in duplicate using MSD IL-2 S-plex according to the manufacturer's instructions.

[3] = assay type: physicochemical; settings: for precipitate in solution: pure water, PBS 1×, artificial perspiration, room temperature and 32° C., 24 hours
Description: Dimerization appeared to be faster in artificial perspiration and at higher concentration.

[4] = stored at 5° C. for 1 month, PBS 1×
[5] = stored at 5° C. for 1 month, artificial perspiration
[6] = stored at 5° C. for 1 month, water
[7] = stored at 5° C. for 3 months, PBS 1×
[8] = stored at 5° C. for 3 months, artificial perspiration
[9] = stored at 5° C. for 3 months, water
[10] = stored at room temperature for 1 month, PBS 1×
[11] = stored at room temperature for 1 month, artificial perspiration
[12] = stored at room temperature for 1 month, water
[13] = stored at room temperature for 3 months, PBS 1×
[14] = stored at room temperature for 3 months, artificial perspiration
[15] = stored at room temperature for 3 months, water

| decrease in median percentage of soluble material recovered from the patch backing film compared to 4K [1, 4] [%] | decrease in median percentage of soluble material recovered from the patch backing film compared to Av6 [1, 4] [%] | decrease in median percentage of soluble material recovered from the patch backing film compared to Cv6 [1, 4] [%] | decrease in median percentage of soluble material recovered from the patch backing film compared to 4K [1, 5] [%] | decrease in median percentage of soluble material recovered from the patch backing film compared to Av6 [1, 5] [%] | decrease in median percentage of soluble material recovered from the patch backing film compared to Cv6 [1, 5] [%] | decrease in median percentage of soluble material recovered from the patch backing film compared to 4K [1, 6] [%] | decrease in median percentage of soluble material recovered from the patch backing film compared to Av6 [1, 6] [%] | decrease in median percentage of soluble material recovered from the patch backing film compared to Cv6 [1, 6] [%] | decrease in median percentage of soluble material recovered from the patch backing film compared to 4K [1, 7] [%] | decrease in median percentage of soluble material recovered from the patch backing film compared to Av6 [1, 7] [%] | decrease in median percentage of soluble material recovered from the patch backing film compared to Cv6 [1, 7] [%] | decrease in median percentage of soluble material recovered from the patch backing film compared to 4K [1, 8] [%] | decrease in median percentage of soluble material recovered from the patch backing film compared to Av6 [1, 8] [%] | decrease in median percentage of soluble material recovered from the patch backing film compared to Cv6 [1, 8] [%] | decrease in median percentage of soluble material recovered from the patch backing film compared to 4K [1, 9] [%] | decrease in median percentage of soluble material recovered from the patch backing film compared to Av6 [1, 9] [%] | decrease in median percentage of soluble material recovered from the patch backing film compared to Cv6 [1, 9] [%] | decrease in median percentage of soluble material recovered from the patch backing film compared to 4K [1, 10] [%] | Molecule | mean IL-2 titer [2] [fg/mL] | other results |
| --- | --- | --- | --- | --- | --- | --- | --- | --- | --- | --- | --- | --- | --- | --- | --- | --- | --- | --- | --- | --- | --- |
| 14 | 5 | 12 | 13 | 8 | 7 | 14 | 4 | 0 | 17 | 10 | 17 | 17 | 11 | 10 | 18 | 14 | 12 | 14 | H-PSGEGSFQPSQENPQ-NH2 [BB4a] |  | decrease in median percentage of soluble material recovered from the patch backing film compared to Av6 [1, 10]: 10%; decrease in median percentage of soluble material recovered from the patch backing film compared to Cv6 [1, 10]: 13%; decrease in median percentage of soluble material recovered from the patch backing film compared to 4K [1, 11]: 14%; decrease in median percentage of soluble material recovered from the patch backing film compared to Av6 [1, 11]: 1%; decrease in median percentage of soluble material recovered from the patch backing film compared to Cv6 [1, 11]: 14%; decrease in median percentage of soluble material recovered from the patch backing film compared to 4K [1, 12]: 15%; decrease in median percentage of soluble material recovered from the patch backing film compared to Av6 [1, 12]: 7%; decrease in median percentage of soluble material recovered from the patch backing film compared to Cv6 [1, 12]: 11%; decrease in median percentage of soluble material recovered from the patch backing film compared to 4K [1, 13]: 11%; decrease in median percentage of soluble material recovered from the patch backing film compared to Av6 [1, 13]: 11%; decrease in median percentage of soluble material recovered from the patch backing film compared to Cv6 [1, 13]: 9%; decrease in median percentage of soluble material recovered from the patch backing film compared to 4K [1, 14]: 12%; decrease in median percentage of soluble material recovered from the patch backing film compared to Av6 [1, 14]: 6%; decrease in median percentage of soluble material recovered from the patch backing film compared to Cv6 [1, 14]: 12%; decrease in median percentage of soluble material recovered from the patch backing film compared to 4K [1, 15]: 13%; decrease in median percentage of soluble material recovered from the patch backing film compared to Av6 [1, 15]: 9%; decrease in median percentage of soluble material recovered from the patch backing film compared to Cv6 [1, 15]: 2%; IL-2 response (in words) [2]: no or low response |
| 16 | 7 | 14 | 14 | 8 | 7 | 20 | 10 | 6 | 16 | 9 | 16 | 20 | 15 | 14 | 19 | 15 | 13 | 15 | H-PQPEQPEQPFPEQPQ-NH2 [BB2a] |  | decrease in median percentage of soluble material recovered from the patch backing film compared to Av6 [1, 10]: 11%; decrease in median percentage of soluble material recovered from the patch backing film compared to Cv6 [1, 10]: 14%; decrease in median percentage of soluble material recovered from the patch backing film compared to 4K [1, 11]: 14%; decrease in median percentage of soluble material recovered from the patch backing film compared to Av6 [1, 11]: 1%; decrease in median percentage of soluble material recovered from the patch backing film compared to Cv6 [1, 11]: 14%; decrease in median percentage of soluble material recovered from the patch backing film compared to 4K [1, 12]: 18%; decrease in median percentage of soluble material recovered from the patch backing film compared to Av6 [1, 12]: 9%; decrease in median percentage of soluble material recovered from the patch backing film compared to Cv6 [1, 12]: 13%; decrease in median percentage of soluble material recovered from the patch backing film compared to 4K [1, 13]: 17%; decrease in median percentage of soluble material recovered from the patch backing film compared to Av6 [1, 13]: 17%; decrease in median percentage of soluble material recovered from the patch backing film compared to Cv6 [1, 13]: 15%; decrease in median percentage of soluble material recovered from the patch backing film compared to 4K [1, 14]: 16%; decrease in median percentage of soluble material recovered from the patch backing film compared to Av6 [1, 14]: 10%; decrease in median percentage of soluble material recovered from the patch backing film compared to Cv6 [1, 14]: 16%; decrease in median percentage of soluble material recovered from the patch backing film compared to 4K [1, 15]: 15%; decrease in median percentage of soluble material recovered from the patch backing film compared to Av6 [1, 15]: 10%; decrease in median percentage of soluble material recovered from the patch backing film compared to Cv6 [1, 15]: 4%; IL-2 response (in words) [2]: no or low response |
|  |  |  |  |  |  |  |  |  |  |  |  |  |  |  |  |  |  |  | QLQPFPQPELPYPQPELPYPQPELPYPQPQPGPRRKKPQPEQPEQPFPEQPQGARRKKPQQPFPQPEQPFPWQPQGPKKPSGEGSFQPSQENPQ (peptide) QLQPFPQPELPYPQPELPYPQPELPYPQPQPGPRRKKPQPEQPEQPFPEQPQGARRKKPQQPFPQPEQPFPWQPQGPKKPSGEGSFQPSQENPQ | 6664 | precipitate in solution [3]: no precipitate was observed |
|  |  |  |  |  |  |  |  |  |  |  |  |  |  |  |  |  |  |  | QLQPFPQPELPYPQPELPYPQPELPYPQPQPGPRRKKPQPEQPEQPFPEQPQGCRRKKPQQPFPQPEQPFPWQPQGPKKPSGEGSFQPSQENPQ (peptide) QLQPFPQPELPYPQPELPYPQPELPYPQPQPGPRRKKPQPEQPEQPFPEQPQGCRRKKPQQPFPQPEQPFPWQPQGPKKPSGEGSFQPSQENPQ | 4858 | dimer formation in solution (HPLC and LC-MS) ([3]; faster in artificial perspiration and at higher concentration): forms some dimers in solution |
|  |  |  |  |  |  |  |  |  |  |  |  |  |  |  |  |  |  |  | QLQPFPQPELPYPQPELPYPQPELPYPQPQPKKKKPQPEQPEQPFPEQPQKKKKPQQPFPQPEQPFPWQPQKKKKPSGEGSFQPSQENPQ (peptide) QLQPFPQPELPYPQPELPYPQPELPYPQPQPKKKKPQPEQPEQPFPEQPQKKKKPQQPFPQPEQPFPWQPQKKKKPSGEGSFQPSQENPQ | 7199 | precipitate in solution [3]: no precipitate was observed |
